In ChEMBL document CHEMBL1201862, “PubChem BioAssay data set” (2004):
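Growth conditions: 96-well plates. Treatment: test compound, 48 hours, 5 concentrations. Analysis: linear interpolation between bracketing concentrations; unreached endpoints set to highest concentration. GI50 is the concentration that inhibits growth by half.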 Calls of active or inactive are those of the source. Cut-off read from the data, not from the text of the source: active = GI50 up to about 1.1 µM and inactive = higher. Where a SMILES comes first, the peptide text is derived from it. [ ]: non-standard residue; d: D form. The star is where a group is joined. Phe(4-NO2) = N[CH](Cc1ccc([N+](=O)[O-])cc1)C(=O)O; Boc = CC(C)(C)OC(=O)*; OBn = c1ccc(CO*)cc1

Columns and labels:
Assay in all cases: inhibition of tumour cell growth, NCI panel, 48 h
SF-295 = test system: SF-295
A498 = test system: A498
MOLT-4 = test system: MOLT-4
CCRF-CEM = test system: CCRF-CEM
PC-3 = test system: PC-3
DU-145 = test system: DU-145
SK-MEL-2 = test system: SK-MEL-2
HL-60 = test system: HL-60
Hs-578T = test system: Hs-578T
SF-268 = test system: SF-268
NCI-H460 = test system: NCI-H460
KM12 = test system: KM12
BT-549 = test system: BT-549
OVCAR-4 = test system: OVCAR-4
ACHN = test system: ACHN
UO-31 = test system: UO-31
EKVX = test system: EKVX
HOP-92 = test system: HOP-92
M14 = test system: M14
MDA-N = test system: MDA-N

Measured: GI50

COC(=O)CCC(NC(=O)OC(C)(C)C)C(=O)NC(Cc1ccc([N+](=O)[O-])cc1)C(=O)NCC(=O)OCc1ccccc1 (stereo not given) (Boc-Glu(OMe)-[Phe(4-NO2)]-Gly-OBn; configuration not given here)
inactive: SF-295 > 48.5 µM | A498 > 100 µM | MOLT-4 > 100 µM | CCRF-CEM 99.3 µM | PC-3 > 100 µM | DU-145 > 100 µM | SK-MEL-2 > 77.1 µM | HL-60 > 74.1 µM | Hs-578T 23 µM | SF-268 37.2 µM | NCI-H460 > 100 µM | KM12 > 100 µM | BT-549 20.4 µM | OVCAR-4 > 92.3 µM | ACHN > 100 µM | UO-31 > 100 µM | EKVX > 60.8 µM | HOP-92 42.4 µM | M14 > 100 µM | MDA-N > 100 µM
